{"source": "patent US6380218B1", "about": "“Nicotinamide derivatives” (Pfizer Inc, priority 1997, dated 2002)"}
{"units": {"melting point": "°C"}}
{"smiles": "N#Cc1cccc(Oc2ncccc2C(=O)NCc2ccccc2Cl)c1", "note": "[Example 110, N-(2-Chloro-benzyl)-2-(3-cyano-phenoxy)-nicotinamide]", "melting point": "135 to 137"}
{"smiles": "N#Cc1cccc(Oc2ncccc2C(=O)NCc2ccc(Cl)s2)c1", "note": "[Example 111, N-(5-Chloro-thiophen-2-ylmethyl)-2-(3-cyano-phenoxy)-nicotinamide]", "melting point": "145 to 147"}
{"smiles": "N#Cc1cccc(Oc2ncccc2C(=O)NCc2ccc3c(c2)CC(=O)N3)c1", "note": "[Example 112, 2-(3-Cyano-phenoxy)-N-(2-oxo-2,3-dihydro-1H-indol-5-ylmethyl)-nicotinamide]", "melting point": "197 to 199"}
{"smiles": "CC(C)(O)c1ccc(CNC(=O)c2cccnc2Oc2cccc(C#N)c2)cc1", "note": "[Example 113, 2-(3-Cyano-phenoxy)-N-[4-(1-hydroxy-1-methyl-ethyl)-benzyl]-nicotinamide]", "melting point": "97 to 99"}
{"smiles": "CC(C)(O)c1ccc(CNC(=O)c2cccnc2Oc2cccc(C#N)c2)c(Cl)c1", "note": "[Example 116, N-[2-Chloro-4-(1-hydroxy-1-methyl-ethyl)-benzyl]-2-(3-cyano-phenoxy)-nicotinamide]", "melting point": "121 to 123"}
{"smiles": "CCc1n[nH]c2ccc(C(NC(=O)c3cccnc3Oc3cccc(C#N)c3)C3CCCCC3)cc12", "note": "(stereo not drawn) [Example 117, 2-(3-Cyano-phenoxy)-N-(-cyclohexyl-3-ethyl-1H-indazol-5-ylmethyl)-nicotinamide]", "melting point": "56 to 58"}
{"smiles": "N#Cc1ccc(Oc2ncccc2C(=O)NCc2ccccc2Cl)cc1", "note": "[Example 119, N-(2-Chloro-benzyl)-2-(4-cyano-phenoxy)-nicotinamide]", "melting point": "112 to 114"}
{"smiles": "CC(=O)Nc1ccc(CNC(=O)c2cccnc2Oc2ccc(F)cc2)cc1", "note": "[Example 124, N-(4-Acetylamino-benzyl)-2-(4-fluoro-phenoxy)-nicotinamide]", "melting point": "128 to 130"}
{"smiles": "CC(=O)Nc1cccc(Oc2ncccc2C(=O)NCc2ccc(C(C)(C)O)cc2)c1", "note": "[Example 126, 2(3-Acetylamino-phenoxy)-N-[4-(1-hydroxy-1-methyl-ethyl)-benzyl]-nicotinamide]", "melting point": "155 to 157"}
{"smiles": "CC(C)(C)C(=O)Oc1ccc(CNC(=O)c2cccnc2Oc2ccc(F)cc2)cc1", "note": "[Example 130, 2,2-Dimethyl-propionic acid 4-({[2-(4-fluoro-phenoxy)-pyridine-3-carbonyl]-amino}-methyl)-phenyl ester]", "melting point": "91 to 93"}
{"smiles": "CS(=O)(=O)Nc1ccc(CNC(=O)c2cccnc2Oc2ccc(F)cc2)cc1", "note": "[Example 131, 2-(4-Fluoro-phenoxy)-N-(4-methanesulfonylamino-benzyl)-nicotinamide]", "melting point": "107 to 109"}
{"smiles": "O=C(NCC(O)c1ccccc1)c1cccnc1Oc1cccc(Cl)c1", "note": "(stereo not drawn) [Example 133, 2-(3-Chloro-phenoxy)-N-(2-hydroxy-2-phenyl-ethyl)-nicotinamide]", "melting point": "118 to 119"}
{"smiles": "O=C(Cc1ccccc1Cl)Nc1cccnc1Oc1ccc(F)cc1", "note": "[Example 136, 2-(2-Chloro-phenyl)-N-[2-(4-fluoro-phenoxy)-pyridin-3-yl]-acetamide]", "melting point": "73 to 75"}
{"smiles": "CC(=O)c1ccc(CC(=O)Nc2cccnc2Oc2ccc(F)cc2)cc1", "note": "[Example 137, 2-(4-Acetyl-phenyl)-N-[2-(4-fluoro-phenoxy)-pyridin-3-yl]-acetamide]", "melting point": "118 to 120"}
{"smiles": "COc1ccccc1NC(=O)Nc1cccc(Oc2ncccc2C(=O)NCc2ccccc2Cl)c1", "note": "[Example 138, N-(2-Chloro-benzyl)-2-(3-[3-(2-methoxy-phenyl)-ureido]-phenoxy}-nicotinamide]", "melting point": "180 to 182"}
{"smiles": "O=C(Nc1cccc(Oc2ncccc2C(=O)NCc2ccccc2Cl)c1)Nc1cccc2ccccc12", "note": "[Example 139, N-(2-Chloro-benzyl)-2-[3-(3-naphthalen-1-yl-ureido)-phenoxy]-nicotinamide]", "melting point": "121 to 123"}
{"smiles": "Nc1cccc(Oc2ncccc2C(=O)NCc2ccccc2Cl)c1", "note": "[Example 144, 2-(3-Amino-phenoxy)-N-(2-chloro-benzyl)-nicotinamide]", "melting point": "101 to 103"}
{"smiles": "CC(=O)c1ccc(CNC(=O)c2cccnc2Oc2cccnc2)s1", "note": "[Example 159, N-(5-Acetyl-thiophen-2-ylmethyl)-2-(pyridin-3-yloxy)-nicotinamide]", "melting point": "201 to 203"}
{"smiles": "CC(O)c1ccc(CNC(=O)c2cccnc2Oc2cccnc2)s1", "note": "(stereo not drawn) [Example 160, N-[5-(1-Hydroxy-ethyl)-thiophen-2-ylmethyl]-2-(pyridin-3yloxy)-nicotinamide]", "melting point": "92 to 94"}
{"smiles": "O=C(O)c1cc2cc(CNC(=O)c3cccnc3Oc3ccc(F)cc3)ccc2[nH]1", "note": "[Example 165, 5-({[2-(4-Fluoro-phenoxy)-pyridine-3-carbonyl]-amino}-methyl)-1H-indole-2-carboxylic acid]", "melting point": "236 to 238"}
{"smiles": "CCCCNC(=O)c1cccnc1Oc1cccnc1", "note": "[Example 174, N-Butyl-2-(pyridin-3-yloxy)-nicotinamide]", "melting point": "55 to 56"}
{"smiles": "CCCCCNC(=O)c1cccnc1Oc1cccnc1", "note": "[Example 175, N-Pentyl-2-(pyridin-3-yloxy)-nicotinamide]", "melting point": "61 to 62"}
{"smiles": "CC[C@H](C)NC(=O)c1cccnc1Oc1cccnc1", "note": "[Example 176, (S)-N-sec-Butyl-2-(pyridin-3-yloxy)-nicotinamide]", "melting point": "64 to 65"}
{"smiles": "CC[C@@H](C)NC(=O)c1cccnc1Oc1cccnc1", "note": "[Example 177, (R)-N-sec-Butyl-2-(pyridin-3-yloxy)-nicotinamide]", "melting point": "55 to 56"}
{"smiles": "NS(=O)(=O)c1ccc(CNC(=O)c2cccnc2Oc2cccnc2)cc1", "note": "[Example 178, 2-(Pyridin-3-yloxy)-N-(4-sulfamoyl-benzyl)-nicotinamide]", "melting point": "196 to 197"}
{"smiles": "NS(=O)(=O)N1CCC(CNC(=O)c2cccnc2Oc2cccnc2)CC1", "note": "[Example 179, 2-(Pyridin-3-yloxy)-N-(1-sulfamoyl-piperidin-4-ylmethyl)-nicotinamide]", "melting point": "165 to 166"}
{"smiles": "O=C(NCc1cccc2[nH]ccc12)c1cccnc1Oc1cccnc1", "note": "[Example 180, N-(1H-Indol-4-ylmethyl)-2-(pyridin-3yloxy)-nicotinamide]", "melting point": "134 to 135"}
{"smiles": "O=C(NCc1ccccn1)c1cccnc1Oc1cccnc1", "note": "[Example 181, N-Pyridin-2-ylmethyl-2-(pyridin-3-yloxy)-nicotinamide]", "melting point": "118 to 119"}
{"smiles": "O=C(NCc1ccc2c(c1)OCO2)c1cccnc1Oc1cccnc1", "note": "[Example 182, N-Benzo[1,3]dioxol-5-ylmethyl-2-(pyridin-3-yloxy)-nicotinamide]", "melting point": "130 to 131"}
{"smiles": "O=C(NCc1ccccc1Cl)c1cccnc1Oc1cccc(C(F)(F)F)c1", "note": "[Example 184, N-(2-Chloro-benzyl)-2-(3-trifluoromethyl-phenoxy)-nicotinamide]", "melting point": "88 to 90"}
{"smiles": "O=C(Cc1ccccc1Cl)Nc1cccnc1Oc1cccnc1", "note": "[Example 185, 2-(2-Chloro-phenyl)-N-[2-(pyridin-3-yloxy)-pyridin-3-yl]-acetamide]", "melting point": "137 to 139"}
{"smiles": "CC(=O)c1ccc(CC(=O)Nc2cccnc2Oc2cccnc2)cc1", "note": "[Example 186, 2-(4-Acetyl-phenyl)-N-[2-(pyridin-3-yloxy)-pyridin-3-yl]-acetamide]", "melting point": "110 to 112"}
{"smiles": "CC(C)(O)c1ccc(CNC(=O)c2cccnc2Oc2cccc(Cl)c2)cc1", "note": "[Example 187, 2-(3-Chloro-phenoxy)-N-[4-(1-hydroxy-1-methyl-ethyl)-benzyl]-nicotinamide]", "melting point": "57 to 59"}
{"smiles": "O=C(NCc1ccccc1Cl)c1cccnc1Oc1cccc(Cl)c1", "note": "[Example 189, N-(2-Chloro-benzyl)-2-(3-chloro-phenoxy)-nicotinamide]", "melting point": "126 to 128"}
{"smiles": "NS(=O)(=O)c1ccc(CNC(=O)c2cccnc2Oc2ccc(F)cc2)cc1", "note": "[Example 193, 2-(4-Fluoro-phenoxy)-N-(4-sulfamoyl-benzyl)-nicotinamide]", "melting point": "222 to 223"}
{"smiles": "NS(=O)(=O)N1CCC(CNC(=O)c2cccnc2Oc2ccc(F)cc2)CC1", "note": "[Example 194, 2-(4-Fluoro-phenoxy)-N-(1-sulfamoyl-piperidin-4-ylmethyl)-nicotinamide]", "melting point": "225 to 226"}
{"smiles": "O=C(NCC1CCC=CO1)c1cccnc1Oc1ccc(F)cc1", "note": "(stereo not drawn) [Example 195, N-(3,4-Dihydro-2H-pyran-2-ylmethyl)-2-(4-fluoro-phenoxy)-nicotinamide]", "melting point": "55 to 57"}
{"smiles": "N#Cc1cccc(Oc2ncccc2C(=O)NCc2ccc(S(N)(=O)=O)cc2)c1", "note": "[Example 196, 2-(3-Cyano-phenoxy)-N-(4-sulfamoyl-benzyl)-nicotinamide]", "melting point": "179 to 180"}
{"smiles": "COc1cccc(Oc2ncccc2C(=O)NCc2ccc(S(N)(=O)=O)cc2)c1", "note": "[Example 200, 2-(3-Methoxy-phenoxy)-N-(4-sulfamoyl-benzyl)-nicotinamide]", "melting point": "142 to 143"}
{"smiles": "COc1cccc(Oc2ncccc2C(=O)NCc2ccc(C(C)(C)O)cc2)c1", "note": "[Example 201, N-[4-(1-Hydroxy-1-methyl-ethyl)-benzyl]-2-(3-methoxy-phenoxy)-nicotinamide]", "melting point": "69 to 71"}
{"smiles": "CC(C)(O)c1ccc(CNC(=O)c2cccnc2Oc2cccc(F)c2)cc1", "note": "[Example 202, 2-(3-Fluoro-phenoxy)-N-[4-(1-hydroxy-1-methyl-ethyl)-benzyl]-nicotinamide]", "melting point": "106 to 108"}
{"smiles": "CC(C)(O)c1ccc(CC(=O)Nc2cccnc2Oc2ccc(F)cc2)cc1", "note": "[Example 203, N-[2-(4-Fluoro-phenoxy)-pyridin-3-yl]-2-[4-(1-hydroxy-1-methyl-ethyl)-phenyl]-acetamide]", "melting point": "135 to 137"}
{"smiles": "CSc1cccc(Oc2ncccc2C(=O)NCc2ccc(C(C)(C)O)cc2)c1", "note": "[Example 206, N-[4-(1-Hydroxy-1-methyl-ethyl)-benzyl]-2-(3-methylsulfanyl-phenoxy)-nicotinamide]", "melting point": "107 to 109"}
{"smiles": "CC(C)(O)c1ccc(CNC(=O)c2cccnc2Oc2cccc(S(C)(=O)=O)c2)cc1", "note": "[Example 207, N-[4-(1-Hydroxy-1-methyl-ethyl)-benzyl]-2-(3-methanesulfonyl-phenoxy)-nicotinamide]", "melting point": "51 to 53"}
{"smiles": "O=C(NCc1ccncc1)c1cccnc1Oc1cccnc1", "note": "[Example 208, N-Pyridin4-ylmethyl-2-(pyridin-3-yloxy)-nicotinamide]", "melting point": "142 to 144"}
